This passage reports IC50 results from patent US12612410B2 (CHILDREN'S HOSPITAL MEDICAL CENTER, priority 2020, dated 2026).

Common to all, as to format: biochemical
Holding throughout (settings): isolated kinase, 33P-ATP

Assay [1] addresses T1, FLT3 (Homo sapiens, UniProt P36888).
T1 sequence (P36888 27-993): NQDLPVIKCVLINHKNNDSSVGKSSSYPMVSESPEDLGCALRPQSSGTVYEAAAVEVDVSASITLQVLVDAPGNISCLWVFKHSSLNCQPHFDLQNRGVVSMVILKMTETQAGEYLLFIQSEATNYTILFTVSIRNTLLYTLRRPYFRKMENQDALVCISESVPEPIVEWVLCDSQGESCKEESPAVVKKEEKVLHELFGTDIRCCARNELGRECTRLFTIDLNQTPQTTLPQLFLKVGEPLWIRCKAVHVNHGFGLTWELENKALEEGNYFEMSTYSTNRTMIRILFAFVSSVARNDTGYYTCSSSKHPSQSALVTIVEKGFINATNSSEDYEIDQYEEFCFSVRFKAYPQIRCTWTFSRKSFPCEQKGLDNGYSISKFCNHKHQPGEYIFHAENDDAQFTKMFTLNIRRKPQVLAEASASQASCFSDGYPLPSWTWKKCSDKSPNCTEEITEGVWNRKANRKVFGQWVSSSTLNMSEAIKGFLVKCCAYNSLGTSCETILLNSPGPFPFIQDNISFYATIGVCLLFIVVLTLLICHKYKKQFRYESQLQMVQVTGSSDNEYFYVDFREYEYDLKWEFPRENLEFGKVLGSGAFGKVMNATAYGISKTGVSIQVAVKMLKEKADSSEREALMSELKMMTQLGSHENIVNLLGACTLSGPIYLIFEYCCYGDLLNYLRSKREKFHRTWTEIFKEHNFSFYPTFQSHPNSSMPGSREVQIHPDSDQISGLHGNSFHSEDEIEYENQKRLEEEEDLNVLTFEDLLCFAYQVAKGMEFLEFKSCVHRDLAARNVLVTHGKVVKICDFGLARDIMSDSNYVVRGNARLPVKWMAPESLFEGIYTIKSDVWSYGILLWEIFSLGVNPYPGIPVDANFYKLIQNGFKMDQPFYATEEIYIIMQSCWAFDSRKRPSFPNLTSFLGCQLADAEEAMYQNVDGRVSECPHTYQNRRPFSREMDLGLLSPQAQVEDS
The experiment in a line: RBC HotSpot Kinase Assay, FLT3. Also on record: purchased Reaction Biology (RBC), HotSpot kinase assay. The text has this:
(§1) This assay uses the isolated kinase enzyme. This assay is very useful for determining competition of the inhibitor for ATP and/or substrates and for measuring the kinetics of enzyme inhibition. […] Unlike kinase binding assays that measure competition for ATP, the HotSpot Kinase Assay is a functional assay that measures catalytic activity; as such it measures relative functional potency regardless of the mechanism of enzyme inhibition. This assay uses the form of the various enzymes that are easiest to express, which may not necessarily be the form of the enzyme that exist in the cell. (Sometimes the carboxy terminus has been truncated to aid in expression, or, if it is a receptor kinase, the enzyme itself is isolated from the other parts of the receptor that are involved in regulating kinase activity.)
(§2) The reagent used was as follows: Base Reaction buffer; 20 mM Hepes (pH 7.5), 10 mM MgCl2, 1 mM EGTA, 0.01% Brij35, 0.02 mg/ml BSA, 0.1 mM Na3VO4, 2 mM DTT, 1% DMSO. Required cofactors were added individually to each kinase reaction.
(§3) The reaction procedure was as follows: • 1) Substrates were prepared in freshly prepared Reaction Buffer. • 2) Any required cofactors were delivered to the substrate solution above. • 3) Kinase was delivered into the substrate solution and gently mixed. • 4) Compounds were delivered in 100% DMSO into the kinase reaction mixture by Acoustic technology (Echo550; nanoliter range), followed by incubation for 20 min at room temp. • 5)^33P-ATP was delivered into the reaction mixture to initiate the reaction. • 6) The mixture was incubated for 2 hours at room temperature. • 7) Kinase activity was detected by P81 filter-binding method.

Assay [2] addresses T2, IRAK1 (Homo sapiens, UniProt P51617).
T2 construct: purchased Reaction Biology (RBC), HotSpot kinase assay
The experiment in a line: RBC HotSpot Kinase Assay, IRAK1.
From the text: as §1, §2, §3

The target in assay [3] is T3, IRAK4 (Homo sapiens, UniProt Q9NWZ3).
T3 sequence (Q9NWZ3 1-460): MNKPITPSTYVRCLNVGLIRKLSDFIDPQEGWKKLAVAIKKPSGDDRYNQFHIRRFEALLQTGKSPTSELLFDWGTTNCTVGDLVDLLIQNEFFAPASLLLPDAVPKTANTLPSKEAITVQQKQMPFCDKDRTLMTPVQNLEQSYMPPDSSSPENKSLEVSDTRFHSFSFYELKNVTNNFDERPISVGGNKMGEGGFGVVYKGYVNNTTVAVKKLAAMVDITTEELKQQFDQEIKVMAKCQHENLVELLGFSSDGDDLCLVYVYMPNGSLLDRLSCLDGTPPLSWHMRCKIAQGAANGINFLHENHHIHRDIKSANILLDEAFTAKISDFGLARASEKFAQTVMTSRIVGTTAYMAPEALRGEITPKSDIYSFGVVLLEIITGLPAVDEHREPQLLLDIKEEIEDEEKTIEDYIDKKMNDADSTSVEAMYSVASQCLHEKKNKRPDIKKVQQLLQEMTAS
The experiment in a line: RBC HotSpot Kinase Assay, IRAK4. The arrangement: purchased Reaction Biology (RBC), HotSpot kinase assay.
From the text: as §1, §2, §3

T2 sequence (P51617 whole entry): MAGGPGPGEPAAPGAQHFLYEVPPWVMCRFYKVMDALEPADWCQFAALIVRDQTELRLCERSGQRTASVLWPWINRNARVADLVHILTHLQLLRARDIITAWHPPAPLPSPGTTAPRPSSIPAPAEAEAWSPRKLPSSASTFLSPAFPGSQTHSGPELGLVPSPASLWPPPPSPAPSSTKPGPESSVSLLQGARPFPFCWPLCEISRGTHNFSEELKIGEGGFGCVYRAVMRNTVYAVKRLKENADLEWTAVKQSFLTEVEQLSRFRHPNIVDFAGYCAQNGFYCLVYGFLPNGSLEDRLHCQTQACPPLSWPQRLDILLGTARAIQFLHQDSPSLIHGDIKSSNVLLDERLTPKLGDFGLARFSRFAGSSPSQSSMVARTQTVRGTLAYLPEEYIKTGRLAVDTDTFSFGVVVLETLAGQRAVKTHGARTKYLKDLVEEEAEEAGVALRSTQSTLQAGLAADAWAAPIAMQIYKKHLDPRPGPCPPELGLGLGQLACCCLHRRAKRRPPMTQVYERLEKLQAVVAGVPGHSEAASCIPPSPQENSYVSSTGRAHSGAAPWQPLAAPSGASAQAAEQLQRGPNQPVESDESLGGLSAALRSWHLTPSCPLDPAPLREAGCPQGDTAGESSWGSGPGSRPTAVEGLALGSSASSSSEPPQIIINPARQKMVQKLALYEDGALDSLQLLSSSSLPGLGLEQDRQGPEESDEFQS

One may read the IC50 as the midpoint of a concentration-inhibition curve. Lower therefore signals inhibition by little substance. On to `CC1(c2cn3c(-c4cccc(N[C@H]5CNC[C@@H]5C(F)(F)F)n4)cnc3cn2)CC1` [Compound 4, 6-(6-(1-methylcyclopropyl)imidazo[1,2-a]pyrazin-3-yl)-N-((3R,4S)-4-(trifluoromethyl)pyrrolidin-3-yl)pyridin-2-amine], for which the IC50 came to 0.9 nM in assay [1], 451 nM in assay [2] and 2 nM in assay [3].

Regarding `CC1(c2cn3c(-c4cccc(N[C@H]5CCNC[C@@H]5F)n4)cnc3cn2)CC1` [Compound 6, N-((3S,4S)-3-fluoropiperidin-4-yl)-6-(6-(1-methylcyclopropyl)imidazo[1,2-a]pyrazin-3-yl)pyridin-2-amine], the values for the IC50 in assay [1], in assay [2] and in assay [3] were 0.6 nM, 926 nM and 86 nM, respectively.

As to `C[C@H]1C[C@@H](Nc2cccc(-c3cnc4cnc(C5(C)CC5)cn34)n2)CCN1` [Compound 7, 6-(6-(1-methylcyclopropyl)imidazo[1,2-a]pyrazin-3-yl)-N-((2S,4S)-2-methylpiperidin-4-yl)pyridin-2-amine], the half-inhibitory concentration (IC50) worked out at 1 nM in assay [1], 3280 nM in assay [2] and 1020 nM in assay [3].

Regarding `C[C@@H]1CNC[C@H](Nc2cccc(-c3cnc4cnc(C5(C(F)(F)F)CC5)cn34)n2)C1` [Compound 15, N-((3R,5S)-5-methylpiperidin-3-yl)-6-(6-(1-(trifluoromethyl)cyclopropyl)imidazo[1,2-a]pyrazin-3-yl)pyridin-2-amine], the values for the IC50 in assay [1], in assay [2] and in assay [3] were 3 nM, 736 nM and 1020 nM, respectively.

For the molecule `FC(F)c1cn2c(-c3cccc(N[C@H]4CNCC45CC5)n3)cnc2cn1` [Compound 20, (R)-N-(6-(6-(difluoromethyl)imidazo[1,2-a]pyrazin-3-yl)pyridin-2-yl)-5-azaspiro[2.4]heptan-7-amine], the IC50 in assay [1] was below 0.5 nM; in assay [2], 150 nM; in assay [3], 2 nM.

`C[C@H]1C[C@@H](Nc2cccc(-c3cnc4cnc(C(F)F)cn34)n2)CCN1` [Compound 22, 6-(6-(difluoromethyl)imidazo[1,2-a]pyrazin-3-yl)-N-((2S,4S)-2-methylpiperidin-4-yl)pyridin-2-amine]: the IC50 amounted to 1 nM in assay [1], 474 nM in assay [2] and 669 nM in assay [3].

With `FC(F)c1cn2c(-c3cccc(N[C@H]4CNCC4(F)F)n3)cnc2cn1` [Compound 23, 6-(6-(difluoromethyl)imidazo[1,2-a]pyrazin-3-yl)-N-(4,4-difluoropyrrolidin-3-yl)pyridin-2-amine], the IC50 was below 0.5 nM in assay [1], 185 nM in assay [2] and 7 nM in assay [3].

For the molecule `CC1(C)CCNCC1Nc1cccc(-c2cnc3cnc(C(F)F)cn23)n1` (stereo not drawn) [Compound 24, 6-(6-(difluoromethyl)imidazo[1,2-a]pyrazin-3-yl)-N-(4,4-dimethylpiperidin-3-yl)pyridin-2-amine], the concentration for half-maximal inhibition (IC50) was below 0.5 nM in assay [1], 236 nM in assay [2] and 2 nM in assay [3].

Regarding `FC(F)c1cn2c(-c3cccc(N[C@H]4CNCCC4(F)F)n3)cnc2cn1` [Compound 26, (S)-6-(6-(difluoromethyl)imidazo[1,2-a]pyrazin-3-yl)-N-(4,4-difluoropiperidin-3-yl)pyridin-2-amine], the IC50 was below 0.5 nM in assay [1], 103 nM in assay [2] and 0.7 nM in assay [3].

As for `CC(C)(O)c1cn2c(-c3cccc(N[C@@H]4CCNC4)n3)cnc2cn1` [Compound 27, (R)-2-(3-(6-(pyrrolidin-3-ylamino)pyridin-2-yl)imidazo[1,2-a]pyrazin-6-yl)propan-2-ol], the 50% inhibitory concentration (IC50) in assay [1] came to 0.8 nM; in assay [2], 116 nM; in assay [3], 0.9 nM.

As to `CC(C)(O)c1cn2c(-c3cccc(N[C@H]4CNC[C@@H](F)C4)n3)cnc2cn1` [Compound 32, 2-(3-(6-(((3R,5S)-5-fluoropiperidin-3-yl)amino)pyridin-2-yl)imidazo[1,2-a]pyrazin-6-yl)propan-2-ol], the IC50 in assay [1] was below 0.5 nM; in assay [2], 385 nM; in assay [3], 3 nM.

Turning to `FC(F)(F)COc1cn2c(-c3cccc(N[C@@H]4CCCNC4)n3)cnc2cn1` [Compound 37, (R)-N-(piperidin-3-yl)-6-(6-(2,2,2-trifluoroethoxy)imidazo[1,2-a]pyrazin-3-yl)pyridin-2-amine], the IC50 in assay [1] is below 0.5 nM; in assay [2], 273 nM; in assay [3] it was 11 nM.

In the case of `FC(F)(F)COc1cn2c(-c3cccc(N[C@H]4CNC[C@@H]4C(F)(F)F)n3)cnc2cn1` [Compound 39, 6-(6-(2,2,2-trifluoroethoxy)imidazo[1,2-a]pyrazin-3-yl)-N-((3R,4S)-4-(trifluoromethyl)pyrrolidin-3-yl)pyridin-2-amine], the IC50 in assay [1] was below 0.5 nM; in assay [2], 301 nM; in assay [3], 8 nM.

For `F[C@H]1CNCC[C@@H]1Nc1cccc(-c2cnc3cnc(OCC(F)(F)F)cn23)n1` [Compound 41, N-((3S,4S)-3-fluoropiperidin-4-yl)-6-(6-(2,2,2-trifluoroethoxy)imidazo[1,2-a]pyrazin-3-yl)pyridin-2-amine], the IC50 in assay [1] was below 0.5 nM; in assay [2], 142 nM; in assay [3], 110 nM.

As for `C[C@H]1C[C@@H](Nc2cccc(-c3cnc4cnc(OCC(F)(F)F)cn34)n2)CCN1` [Compound 42, N-((2S,4S)-2-methylpiperidin-4-yl)-6-(6-(2,2,2-trifluoroethoxy)imidazo[1,2-a]pyrazin-3-yl)pyridin-2-amine], the results for the IC50 in assay [1], in assay [2] and in assay [3] were 0.6 nM, 413 nM and 339 nM, respectively.

Take `FC(F)n1cc(-c2cn3c(-c4cccc(N[C@@H]5CCCNC5)n4)cnc3cn2)cn1` [Compound 44, (R)-6-(6-(1-(difluoromethyl)-1H-pyrazol-4-yl)imidazo[1,2-a]pyrazin-3-yl)-N-(piperidin-3-yl)pyridin-2-amine]: the figures for the IC50 in assay [1], in assay [2] and in assay [3] were below 0.5 nM, 4280 nM and 37 nM, respectively.

For `c1cc(N[C@@H]2CCCNC2)nc(-c2cnc3cnc(-c4cnn(C5CC5)c4)cn23)c1` [Compound 45, (R)-6-(6-(1-cyclopropyl-1H-pyrazol-4-yl)imidazo[1,2-a]pyrazin-3-yl)-N-(piperidin-3-yl)pyridin-2-amine], the half-inhibitory concentration (IC50) was below 0.5 nM in assay [1], 1990 nM in assay [2] and 12 nM in assay [3].

Take `CC(C)(O)Cn1cc(-c2cn3c(-c4cccc(N[C@@H]5CCCNC5)n4)cnc3cn2)cn1` [Compound 46, (R)-2-methyl-1-(4-(3-(6-(piperidin-3-ylamino)pyridin-2-yl)imidazo[1,2-a]pyrazin-6-yl)-1H-pyrazol-1-yl)propan-2-ol]: the IC50 in assay [1] was below 0.5 nM; in assay [2], 3640 nM; in assay [3] it was 8 nM.
